Patent publication US20230181535A1, “UBIQUITIN-LIGASE INHIBITORS FOR THE TREATMENT OF CANCER” (FUNDACIÓN PROFESOR NOVOA SANTOS, priority 2020, published 2023)
“And” between values parts separate entries of the source, which are not always exact repeats. Identical values can stand only once.

What was measured:
[1] = test system: HCT116 colon cancer cells; experiment: MTT cell viability assay, HCT116; format: cell-based, human; conditions: concentrations tested in the previous assays
Protocol: For cytotoxicity assays, 1×10^4 cells were seeded per well into a 96-well plate. After 24 h cells were treated with the indicated inhibitors for 72 h and a MTT colorimetric cell viability assay was performed following manufacturer's instructions (Sigma Aldrich, St Louis, Mo.). Absorbance was measured at 570 and 630 nm using a Multiskan Plus Reader (Nanoquant Infinite M200 Tecan Trading AG, Switzerland). Dose-response curves were designed with Graph Pad Prism Software and the half-maximal inhibitory concentration (IC50) values were calculated. Represented data are the mean±SEM of at least three independent experiments with six replicates per condition.

[2] = test system: mouse cryopreserved hepatocytes; experiment: Metabolite profiling in mouse cryopreserved hepatocytes; format: in vitro ADME; conditions: for Area percentage in sample, 0 minute control / Area percentage in sample, 10 minute sample / Area percentage in sample, 20 minute sample / Absolute area in sample, 0 minute control / Absolute area in sample, 10 minute sample / Absolute area in sample, 20 minute sample: mouse hepatocyte samples; for Absolute area in sample, 0 minute control / Absolute area in sample, 10 minute sample / Absolute area in sample, 20 minute sample: XIC area
Protocol: Test compound (final substrate concentration 3 μM; final DMSO concentration 0.25%) were pre-incubated at 37° C., prior to the addition of a suspension of cryopreserved hepatocytes (final cell density 0.5×10^6 viable cells/mL in Williams E media supplemented with 2 mM L glutamine and 25 mM HEPES) to initiate the reaction. The reactions were stopped with acetonitrile containing internal standard at the appropriate time points ([…]). The termination plates were centrifuged at 2500 rpm at 4° C. for 30 minute to precipitate the protein. Following the hepatocyte stability assays, the samples were utilized for metabolite profiling. Hepatocyte stability in mouse and human was performed by using the incubation of tested compound (3 μM) with cryopreserved hepatocytes in suspension. Samples were removed at 6 time points over the course of a 60 min experiment and remaining test compound at each time point was analysed by using LC-MS/MS. Then, data was analysed and an intrinsic clearance (CLint) with standard error and half-life (t½) reported.
The samples from the hepatocyte stability assay were utilized for metabolite profiling. The 10 and 20 minute samples were compared to the 0 minute control sample to identified the metabolites formed. […] The areas and percentages reported for the parent and metabolites have been calculated using the XIC data; it has been assumed that each metabolite has the same ionization efficiency and that the sensitivity of the metabolite has not been affected by the biotransformation. […] For accuracy, a ppm error of less than 5 is desirable; when the response for a metabolite observed is low the ppm error maybe greater than 5. Where a metabolite has been referred to as a potential oxidation it can refer to a potential hydroxylation, epoxidation or oxide formation. Representative collision induced dissociation (CID) mass spectra were obtained for the metabolites found. Structural elucidation was then performed on the metabolite observed. The data are processed using Metabolynx XS (Waters Ltd). When the compound structure has been provided, the data is processed using mass defect filtering1 with the dealkylation tool2; if the structure is not provided then mass defect, filtering alone is used. […] The de-alkylation tool is used in addition to the mass defect filtering to take into account that when the molecule cleaves metabolically e.g. at an amine group, the mass defect may change. Following this initial processing, the data is compared to the control sample to determine whether a series of expected metabolites are observed. Finally, the same data set is processed, using 1 a.m.u. windows across the whole data acquisition range to look for non-predicted or unexpected metabolites. After the automated Metabolynx XS processing, the data are reviewed to confirm the validity of the detected metabolites and to ensure correct assignment of the metabolite observed. The elemental formula for the observed ion and compound is reported, along with the error in parts per million (ppm) for the measured ion compared to the theoretical mass of the ion. […] Therefore, structures are depicted in Markush format3 with the shaded area showing potential sites of modification. Hepatocyte stability, metabolic profiling and test compound analysis was performed by Cyprotex Discovery.

HT29 cells = experiment: Migration assay, HT29; format: cell-based, human; conditions: HT-29; treated 48 h
Protocol: For invasion assays, cells were treated with Hakin-1 or DMSO as vehicle for 48 h using 1% FBS during the last 24 hours. 3×10^5 MDCK, MDCK-Hakai or LoVo cells were seeded in a cell invasion chamber (Cell invasion assay kit, Chemicon International) containing medium with 2% FBS. After 72 hours for MDCK and MDCK-Hakai Invasive and 16 h for LoVo cells, invasive cells invaded that reach the lower chamber containing 30% FBS were fixed and stained with crystal violet (Sigma Aldrich, St Louis, Mo.) following the manufacturer's specifications. For migration assays, HT29 cells were cultured with Hakin-1 or DMSO as vehicle for 48 h, using medium without serum the last 24 h. In the cell migration chamber were seeded 3×10^5 HT29 cells (Cell migration kit, Millipore, Bedford, Mass.) containing medium without serum. After 16 h, migrated cells in the lower chamber containing serum with 30% FBS were stained with crystal violet and counted following the manufacturer's specifications. For both invasion and migration assays cells were counted in five fields photographed with an Olympus microscope using a 20× objective, experiments were performed in triplicates for each condition and the assays were repeated at least three times. Results are expressed as mean±SD.

renal cancer ACHN cells = experiment: BrdU proliferation assay, ACHN; format: cell-based, human; conditions: 48 h
Protocol: (§1) For BrdU assays, 1×10^4 of indicated cells were plated per well into a 96-well plate. After 24 h, cells were treated with the indicated inhibitors for 48 h. Three independent experiments were plated with six replicates per each condition. Cells were treated with […] BrdU for 2 h. BrdU incorporation into newly synthesized DNA was measured using a cell proliferation colorimetric immunoassay kit according to the manufacturer's instructions (Roche, Switzerland). Results are expressed as mean±S.D. Results are represented as percentage of positive cells (mean±S.D) of three independent experiments.

[3] = test system: prostate cancer PC-3 cells; experiment: BrdU proliferation assay, PC-3; format: cell-based, human; conditions: 48 h
Protocol: as §1

epithelial MDCK cells = experiment: Phase-contrast cell phenotype, MDCK; format: cell-based
Protocol: MDCK, HEK293T, HepG2, MCF7 and ACHN cells were cultured in Dulbecco's Modified Eagles Medium (DMEM). MDCK stably expressing Hakai cells (Hakai-MDCK) were previously reported and were growth in DMEM with G418 (800 μg/ml). […] LoVo and PC-3 cells were cultured in F-12K Medium (Kaighn's Modification of Ham's F-12 Medium) and HT-29 and HCT116 cells in McCoy's 5a Medium Modified. 5637 cells were cultured in RPMI medium. All culture media were supplemented with 1% penicillin/streptomycin and 10% of heat-inactivated fetal bovine serum (FBS) at 37° C. in a humidified incubator with 5% CO2. Cells were monthly tested for mycoplasma contamination and used only for 1-3 months after defrosted. LoVo and HT29 cells were authenticated with the StemElite ID system (Promega). For phase-contrast images, culture cells were photographed with a Nikon Eclipse-TI microscope.

SMILES | cytotoxic effect (cell viability, MTT) [1] | polarity compared to parent (LCMS) ([2]; metabolite from incubating compound #1 with mouse hepatocytes) | found in hepatocyte stability assay samples (Mouse) [2] | Area percentage in sample, 0 minute control [2] | Area percentage in sample, 10 minute sample [2] [%] | Area percentage in sample, 20 minute sample [2] [%] | Absolute area in sample, 0 minute control [2] | Absolute area in sample, 10 minute sample [2] | Absolute area in sample, 20 minute sample [2] | cell migration (HT29 cells) | cell proliferation (BrdU) (renal cancer ACHN cells) | cell proliferation (BrdU) [3] | cell phenotype by phase contrast (epithelial MDCK cells)
O=C(O)c1ccc(-n2nnnc2SCC(O)c2ccc([N+](=O)[O-])cc2)cc1 (centres unmarked) [MKH1] | no cytotoxic effect | more polar than the parent | ✓ | 2.72% and 2.76% | 73.8 | 94 | 1235 | 39618 | 45169 | – | – | – | –
O=C(O)c1ccc(-n2nnnc2SCC(=O)c2ccc([N+](=O)[O-])cc2)cc1 [Hakin-1, 4-(5-[2-(4-nitrophenyl)-2-oxoethyl]thiol-1H-tetrazol-1-yl)benzoic acid] | – | – | ✓ | 97.2% | 26.2 | 5.99 | 43574 | 14090 | 2877 | important reduction of cell migration | inhibited cell proliferation | inhibited cell proliferation | no effect was observed
